Reference: PMC6862331, “Identification of Isoform-Selective Ligands for the Middle Domain of Heat Shock Protein 90 (Hsp90)” (International Journal of Molecular Sciences, 2019)
Values joined by “and” are separate entries in the source; they are usually repeats but may differ in a detail not shown here. Equal entries are not always repeated. “Also recorded” adds a separate entry of the source. Where two headings read alike, the source gives them in different places.

Key:
[1] = target: T1, recombinant human Hsp90α MD (Homo sapiens, UniProt P07900); test: Intrinsic tryptophan fluorescence spectroscopy (quenching screen and KD titration) with Hsp90α MD; format: binding; settings: for binding to Hsp90α MD in initial screening: less than 40% quenching eliminated
T1 construct: made in house; host or cells: Escherichia coli BL21 (DE3)
Excerpt: (§1) As a result of virtual screening, 24 hit compounds (Figure 1 and Table S3) were selected for further experimental testing against recombinant human Hsp90α MD (residues 294 to 554, Table S4) and human Hsp90β MD (residues 286 to 546, Table S5). As there are tryptophan residues located within the defined binding pocket in both Hsp90α MD and Hsp90β MD, intrinsic tryptophan fluorescence quenching experiment was used to screen the binding of our virtual hits to the proteins. Initial screening experiments were conducted by using 20 μM of Hsp90α/β MD and 1 mM of compounds. Molecules that gave less than 40% fluorescence quenching were eliminated.
(§2) We then focussed on studying the binding of our compounds (5, 8, 9, 10, 12, 17, 22, 24) to both Hsp90α MD and Hsp90β MD. Titration experiments were performed to quantify the binding affinity (dissociation constant, KD) to Hsp90α MD and Hsp90β MD (Table 1 and Figures S3–S10). The KD values of gambogic acid were also measured as control (Table 1 and Figure S11). […] Our KD values for gambogic acid are in agreement with previous studies (~10-fold preference). The selectivity for the β-isoform (over α-isoforms) was progressively less for weaker binders.
(§3) Fluorescence was measured using EnSpire Multimode Plate Reader (PerkinElmer, Melbourne, Australia). Experiments were performed in 20 µM of Hsp90 MD in 20 mM Tris (pH 7.5) and 0.2 M KCl. Different concentration of the virtual hits (InterBioScreen, Bar, Montenegro) or gambogic acid were added to the mixture. Excitation wavelength was 280 nm and intrinsic fluorescence was measured between 300 and 450 nm. The control experiment with Hsp90 MD on its own was conducted. Background fluorescence arising from the compound was subtracted to generate the final spectrum. The total volume per well of the 96-well microplate was 30 µL. Non-linear curve fitting of Equation (1) to the data was conducted using SigmaPlot 14.0 (Systat Software, San Jose, CA, USA). All tests were conducted in triplicate and the errors shown are standard deviation. KD was calculated for each binder using Equation (1), where Δobs is the changes in fluorescence intensity from the titrations, Δmax is the maximum fluorescence intensity change, [LT] represents the titrated ligand concentration, and [PT] indicates the protein concentration.
(§4) (1) Δobs=Δmax×(KD+[LT]+[PT])−(KD+[LT]+[PT])^2−(4×[PT]×[LT])/2×[PT]
(§5) Supplementary Figure S2. Screening of the virtual hits (1 mM) to Hsp90α/β MD (20 μM) by intrinsic protein fluorescence. Percentage fluorescence quenching was calculated with the […]
(§6) % Fluorescence quenching = (Iprotein − Iprotein+compound) […]
(§7) In which Iprotein denotes intrinsic fluorescence intensity of the protein in the absence of any compound, Iprotein+compound denotes intrinsic fluorescence intensity of the protein in the presence of the compound. Experiments were conducted in triplicate. Errors shown are standard […]
(§8) (1 picture or pasted object on this page, not shown here)

[2] = target: T2, recombinant human Hsp90β MD (Homo sapiens, UniProt P08238); test: Intrinsic tryptophan fluorescence spectroscopy (quenching screen and KD titration) with Hsp90β MD; format: binding; settings: for binding to Hsp90β MD in initial screening: less than 40% quenching eliminated; for Kd: titration, 20 µM Hsp90 MD, 20 mM Tris pH 7.5, 0.2 M KCl, triplicate, error = SD; for selectivity (preference) for the β-isoform over the α-isoform in terms of KD: Hsp90β MD vs Hsp90α MD
T2 construct: made in house; host or cells: Escherichia coli BL21 (DE3)
T2 sequence (P08238 286-546): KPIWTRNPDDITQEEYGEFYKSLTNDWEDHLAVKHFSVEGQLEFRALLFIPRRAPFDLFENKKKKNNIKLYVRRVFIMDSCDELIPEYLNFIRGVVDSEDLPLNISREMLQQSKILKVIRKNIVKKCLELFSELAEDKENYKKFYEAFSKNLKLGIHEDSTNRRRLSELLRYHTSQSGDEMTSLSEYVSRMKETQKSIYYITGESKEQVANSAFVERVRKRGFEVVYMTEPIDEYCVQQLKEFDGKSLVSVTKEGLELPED
Excerpt: as §1, §2, §3, §4, §5, §6, §7, §8

[3] = target: T2, recombinant human Hsp90β MD; design: method as in PMID 27466407; settings: cited from earlier work
[4] = titration, 20 µM Hsp90 MD, 20 mM Tris pH 7.5, 0.2 M KCl, triplicate, error = SD, read-out: KD to Hsp90α MD
[5] = initial screen, 1 mM compound, 20 μM protein

Compound	binding to Hsp90α MD in initial screening ([1]; 1 mM compound, 20 μM protein)	Kd [1, 4] [µM]	binding to Hsp90β MD in initial screening ([2]; 1 mM compound, 20 μM protein)	Kd ([2]; read-out: KD to Hsp90β MD)	selectivity (preference) for the β-isoform over the α-isoform in terms of KD [2]	Kd [1] [µM]	fluorescence quenching of Hsp90α MD [1, 5]	Kd ([2]; KD to Hsp90β MD)	fluorescence quenching of Hsp90β MD [2, 5]	preference for Hsp90β MD over Hsp90α MD, previous study [3]
CN[C@H]1CCc2cc(OC)c(OC)c(OC)c2-c2ccc(NCc3cccnc3)c(=O)cc21 [Compound 10, (S)-1,2,3-trimethoxy-7-(methylamino)-10-((pyridin-3-ylmethyl)amino)-6,7-dihydrobenzo[a]heptalen-9(5H)-one]					bind stronger to Hsp90β MD than to Hsp90α MD	> 500	~ 20%	> 100 µM and 164 µM	~ 90%	
CC(=O)N[C@H]1[C@H](Oc2ccc3c(=O)c(-c4ccc5c(c4)OCCCO5)c(C)oc3c2)O[C@H](CO)[C@@H](O)[C@@H]1O [Compound 17, N-((2S,3R,4R,5S,6R)-2-((3-(3,4-dihydro-2H-benzo[b][1,4]dioxepin-7-yl)-2-methyl-4-oxo-4H-chromen-7-yl)oxy)-4,5-dihydroxy-6-(hydroxymethyl)tetrahydro-2H-pyran-3-yl)acetamide]	bind to both Hsp90α MD and Hsp90β MD	506 ± 4	bind to both Hsp90α MD and Hsp90β MD	> 100 µM and 285 µM	bind stronger to Hsp90β MD than to Hsp90α MD					
COc1cc(C2NC(C(=O)O)Cc3c2[nH]c2ccc(OCc4ccccc4)cc32)cc(OC)c1OC (centres unmarked) [Compound 24, 6-(benzyloxy)-1-(3,4,5-trimethoxyphenyl)-2,3,4,9-tetrahydro-1H-pyrido[3,4-b]indole-3-carboxylic acid]	bind to both Hsp90α MD and Hsp90β MD	661 ± 3	bind to both Hsp90α MD and Hsp90β MD	> 100 µM and 265 µM	bind stronger to Hsp90β MD than to Hsp90α MD					
CC(C)=CCC[C@]1(C)C=Cc2c(O)c3c(c(CC=C(C)C)c2O1)O[C@]12C(=C[C@@H]4C[C@H]1C(C)(C)O[C@@]2(C/C=C(/C)C(=O)O)C4=O)C3=O [Gambogic acid, reference compound]		195 ± 5		33 ± 2 µM						~ 7 fold

Further compounds by falling Kd [1, 4], results first:

binding to Hsp90α MD in initial screening ([1]; 1 mM compound, 20 μM protein)	Kd [1, 4] [µM]	binding to Hsp90β MD in initial screening ([2]; 1 mM compound, 20 μM protein)	Kd ([2]; read-out: KD to Hsp90β MD)	Compound	selectivity (preference) for the β-isoform over the α-isoform in terms of KD [2]	Kd [1] [µM]	fluorescence quenching of Hsp90α MD [1, 5]	Kd ([2]; KD to Hsp90β MD)	fluorescence quenching of Hsp90β MD [2, 5]	preference for Hsp90β MD over Hsp90α MD, previous study [3]
bind to both Hsp90α MD and Hsp90β MD	470 ± 2	bind to both Hsp90α MD and Hsp90β MD	136 ± 1 µM	CCC[C@@H](NC(=O)C(C)Oc1ccc2c(-c3ccccc3)cc(=O)oc2c1)C(=O)O (stereo partly drawn) [Compound 5, (2R)-2-(2-((2-oxo-4-phenyl-2H-chromen-7-yl)oxy)propanamido)pentanoic acid]						
bind to both Hsp90α MD and Hsp90β MD	459 ± 7	bind to both Hsp90α MD and Hsp90β MD	> 500 µM	COc1cc(C(=O)NC(Cc2ccccc2)C(=O)O)cc(OC)c1OC (centres unmarked) [Compound 22, (3,4,5-trimethoxybenzoyl)phenylalanine]	slight preference for Hsp90α MD					
bind to both Hsp90α MD and Hsp90β MD	299 ± 3	bind to both Hsp90α MD and Hsp90β MD	57 ± 1 µM	CCC(C)[C@@H](NC(=O)C(C)Oc1ccc2c(-c3ccccc3)cc(=O)oc2c1)C(=O)O (stereo partly drawn) [Compound 9, (2R)-3-methyl-2-(2-((2-oxo-4-phenyl-2H-chromen-7-yl)oxy)propanamido)pentanoic acid]						
bind to both Hsp90α MD and Hsp90β MD	284 ± 4	bind to both Hsp90α MD and Hsp90β MD	> 500 µM	O=C(CNC(=O)OCc1ccccc1)Oc1cc(O)c2c(=O)cc(-c3ccccc3)oc2c1 [Compound 8, 5-hydroxy-4-oxo-2-phenyl-4H-chromen-7-yl ((benzyloxy)carbonyl)glycinate]	slight preference for Hsp90α MD					
bind to both Hsp90α MD and Hsp90β MD	92 ± 0.8	bind to both Hsp90α MD and Hsp90β MD	< 20 µM	O=C(CC1=C(O)C(=O)c2ccccc2C1=O)c1ccccc1 [Compound 12, 2-hydroxy-3-(2-oxo-2-phenylethyl)naphthalene-1,4-dione]	bind stronger to Hsp90β MD than to Hsp90α MD; also recorded: seven-fold					
